Like-named read-outs stand apart in the source and are kept apart here.
Legend:
MCT8 [1] = molecular target: T1, MCT8 (Rattus norvegicus, UniProt Q8K1P8); assay: Inhibition of uptake of labeled T4 and T3 in MCT8 cRNA-injected oocytes by putative competitors; type: cell-based; details: labeled T3 10 nm, MCT8 cRNA-injected oocytes
T1 construct: the stop codon of MCT8 was removed by performing PCR using the same sense primer as above; expressed in transfected cells; host or cells: Xenopus laevis oocytes injected with cRNA transcribed from pGEM-HeJuel
Protocol: (§1) Oocytes were isolated and allowed to recover overnight at 18 C in modified Barth's solution containing 20 IU/ml penicillin and 20 gg/ml streptomycin as described before (23). […] Uninjected or water injected oocytes were used as controls.
(§2) Transport measurements in oocytes—Oocytes were washed and preincubated at 18 C in standard uptake solution (100 mM NaCl, 2 mM KCl, 1 mM CaCl2, 1 mM MgCl2, 10 mM HEPES, and 10 mM Tris, pH 7.5). […] The possible Na^+ dependence of transport was tested by preincubation and incubation in Na^+-free uptake solution in which NaCl was replaced by choline chloride. The influence of the temperature on the uptake rate was tested by the incubation of oocytes with uptake solutions at different temperatures between 4 and 37 C. […] The incubation was stopped by aspiration of the medium, and oocytes were washed 4 times at 4 C with standard uptake solution containing 0.1% BSA.

MCT8 [2] = molecular target: T2, MCT8 (Rattus norvegicus, UniProt Q8K1P8, G227D/I169T/S199P/T171I); assay: as above; type: cell-based; set-up: the stop codon of MCT8 was removed by performing PCR using the same sense primer as above; expressed in transfected cells; host or cells: Xenopus laevis oocytes injected with cRNA transcribed from pGEM-HeJuel; details: for Inhibition of labeled T4 and T3 uptake by MCT8 (in words): unlabeled competitor, taurocholate and probenecid data not shown
Protocol: as §1, §2

MCT8 [3] = molecular target: T2, MCT8; assay: Transport (uptake) of radioactive ligands by MCT8 expressed in X. laevis oocytes; type: cell-based; set-up: the stop codon of MCT8 was removed by performing PCR using the same sense primer as above; expressed in transfected cells; host or cells: Xenopus laevis oocytes injected with cRNA transcribed from pGEM-HeJuel; details: 10 nM iodothyronines or amino acids; MCT8 cRNA-injected vs uninjected oocytes
Protocol: Xenopus oocytes were isolated and injected with 4.6 ng rat MCTS cRNA. After 3 days, groups of 10 injected or uninjected oocytes were incubated for 60 mm at 25 C with 10 nM radioactive iodothyronines in 0.1 ml medium. Uptake of iodothyronines was determined as previously described (18).
as §1
Transport measurements in oocytes—Oocytes were washed and preincubated at 18 C in standard uptake solution (100 mM NaCl, 2 mM KCl, 1 mM CaCl2, 1 mM MgCl2, 10 mM HEPES, and 10 mM Tris, pH 7.5). Usually, transport was tested by incubation of groups of 5-10 oocytes for 2-60 mm at 25 C with 10 nM [1251]iodothyronines or 10 μM [3H]amino acids in 0.1 ml standard uptake solution. The possible Na^+ dependence of transport was tested by preincubation and incubation in Na^+-free uptake solution in which NaCl was replaced by choline chloride. The influence of the temperature on the uptake rate was tested by the incubation of oocytes with uptake solutions at different temperatures between 4 and 37 C. […] The incubation was stopped by aspiration of the medium, and oocytes were washed 4 times at 4 C with standard uptake solution containing 0.1% BSA.

rat MCT1 = molecular target: T3, rat MCT1 (Rattus norvegicus, UniProt P53987); details: data not shown
T3 sequence (P53987 1-494): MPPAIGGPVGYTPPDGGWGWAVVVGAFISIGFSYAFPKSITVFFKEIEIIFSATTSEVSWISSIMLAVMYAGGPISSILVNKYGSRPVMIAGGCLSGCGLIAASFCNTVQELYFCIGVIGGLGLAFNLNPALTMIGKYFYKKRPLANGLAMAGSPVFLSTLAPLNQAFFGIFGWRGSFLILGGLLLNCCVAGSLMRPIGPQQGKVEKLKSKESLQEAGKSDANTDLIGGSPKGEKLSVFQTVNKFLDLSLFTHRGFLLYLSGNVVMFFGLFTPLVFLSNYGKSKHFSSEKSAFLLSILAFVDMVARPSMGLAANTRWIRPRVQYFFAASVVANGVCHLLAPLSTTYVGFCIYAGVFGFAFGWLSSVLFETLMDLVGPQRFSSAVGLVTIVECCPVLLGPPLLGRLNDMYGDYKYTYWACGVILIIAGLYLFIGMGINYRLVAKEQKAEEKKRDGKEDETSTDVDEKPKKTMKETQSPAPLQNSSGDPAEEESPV

rat oatp1 = molecular target: T4, rat oatp1 (Rattus norvegicus, UniProt P46720); details: literature (10); read-out: Apparent Km values for rat oatp1; cited from earlier work
T4 sequence (P46720 1-670): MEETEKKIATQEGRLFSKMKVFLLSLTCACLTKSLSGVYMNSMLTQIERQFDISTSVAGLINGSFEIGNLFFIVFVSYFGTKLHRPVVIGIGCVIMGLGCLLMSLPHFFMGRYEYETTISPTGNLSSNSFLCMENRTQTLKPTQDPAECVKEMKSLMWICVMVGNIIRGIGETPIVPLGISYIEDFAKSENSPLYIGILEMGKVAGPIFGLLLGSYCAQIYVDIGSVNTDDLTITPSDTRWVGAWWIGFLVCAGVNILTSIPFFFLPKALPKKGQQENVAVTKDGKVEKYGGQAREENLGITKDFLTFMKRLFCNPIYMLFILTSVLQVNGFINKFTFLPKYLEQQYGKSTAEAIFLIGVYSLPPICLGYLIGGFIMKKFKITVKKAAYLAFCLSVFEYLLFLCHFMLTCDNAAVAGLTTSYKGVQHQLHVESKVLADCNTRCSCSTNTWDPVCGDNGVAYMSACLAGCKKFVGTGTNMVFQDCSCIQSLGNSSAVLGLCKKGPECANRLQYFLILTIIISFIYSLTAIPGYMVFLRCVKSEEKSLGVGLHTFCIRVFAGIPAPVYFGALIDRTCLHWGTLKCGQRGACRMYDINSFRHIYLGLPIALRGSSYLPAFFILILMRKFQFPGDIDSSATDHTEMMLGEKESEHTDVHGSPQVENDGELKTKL

MCT8 [4] = molecular target: T2, MCT8; assay: Transport kinetics of MCT8-mediated iodothyronine uptake in oocytes (Michaelis-Menten); set-up: dose or concentration left out as unconfirmed; details: net transport
Protocol: Apparent Km values were calculated by fitting the plot of uptake rate (v) versus ligand concentration (5) to the Michaelis Menten equation: v=Vmax/(1+Km/S), wherein Vmax is the maximum uptake rate, and Km the Michaelis constant. Calculations were performed using the Slide Write Plus program version 5.01 (Advanced Graphics Software).

MCT8 [5] = molecular target: T2, MCT8; assay: Uptake and metabolism (sulfation) of rT3 in MCT8 cRNA-injected oocytes; type: cell-based; set-up: the stop codon of MCT8 was removed by performing PCR using the same sense primer as above; expressed in transfected cells; host or cells: Xenopus laevis oocytes injected with cRNA transcribed from pGEM-HeJuel; details: 10 nM rT3, 2-60 min, 25 C
Protocol: Analysis of rT3 metabolism in oocytes—Groups of 10 oocytes were incubated for 2-60 mm at 25 C with 10 nM ['25IIrTa. After incubation, medium was collected, and 2 groups of 5 oocytes were counted separately and homogenized in 0.1 ml 0.1 M NaOH as described before (25). Lysates were cleared by centrifugation. Lysates (in duplicate) and incubation media were acidified with 0.1 M HCl and analyzed by Sephadex LH-20 chromatography (21). The different products were successively eluted with 0.1 M HCl (iodide), water (conjugates), and 1% NH4OH in ethanol (iodothyronines).
Metabolism of rT3—Previous studies have shown that X. laevis oocytes actively metabolize rT3 by sulfation. Since sulfotransferases are located intracellularly, we have used this property to investigate rT3 internalization by oocytes. […] At several time points, uninjected and MCT8 cRNA-injected oocytes are homogenized, and the homogenates and medium samples are analyzed for rT3 and rT3 sulfate (rT3S) content. It is shown that already after 2 mm of incubation, rT3S is formed intracellularly in the MCT8 cRNA-injected oocytes. After 10 mm of incubation, release of rT3S into the medium is observed. The production rate of rT3S is much higher in MCT8 cRNA-injected oocytes than in uninjected cells.

[6] = labeled T4 10 nm, inhibitor 100 μM, MCT8 cRNA-injected oocytes
[7] = labeled T4 10 nm, inhibitor 10 μM, MCT8 cRNA-injected oocytes

T2 sequence (Q8K1P8 whole entry I169T/T171I/S199P/G227D): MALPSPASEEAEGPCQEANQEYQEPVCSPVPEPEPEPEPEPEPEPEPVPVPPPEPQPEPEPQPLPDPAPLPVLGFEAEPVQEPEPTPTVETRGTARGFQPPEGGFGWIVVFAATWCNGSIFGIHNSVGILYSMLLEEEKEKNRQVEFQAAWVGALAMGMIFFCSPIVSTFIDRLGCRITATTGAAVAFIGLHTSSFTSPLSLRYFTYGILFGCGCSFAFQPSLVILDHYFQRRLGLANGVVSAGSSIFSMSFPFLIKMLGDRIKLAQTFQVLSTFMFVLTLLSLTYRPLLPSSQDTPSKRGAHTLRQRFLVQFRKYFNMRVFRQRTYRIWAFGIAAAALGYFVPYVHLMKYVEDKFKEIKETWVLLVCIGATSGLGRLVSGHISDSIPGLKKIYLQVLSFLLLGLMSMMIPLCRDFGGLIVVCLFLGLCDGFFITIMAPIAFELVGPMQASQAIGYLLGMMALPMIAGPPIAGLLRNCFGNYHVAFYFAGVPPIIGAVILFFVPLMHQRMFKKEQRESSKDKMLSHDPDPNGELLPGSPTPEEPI
T1 sequence (Q8K1P8 whole entry I169T/T171I/S199P/G227D): as above

Inhibition of labeled T4 and T3 uptake by MCT8 (in words) (MCT8 [2]) | Substrate specificity: transport by MCT8 (in words) (MCT8 [3]) | Compound | also measured
hardly affected | not transported | N[C@@H](Cc1ccc(O)cc1)C(=O)O [Tyr] | % inhibition ± SEM of uptake of T3 (MCT8 [1]; inhibitor 100 μM): 0 ± 9%; % inhibition ± SEM of uptake of T4 (MCT8 [2]; [6]): 37 ± 6%
 | not transported | N[C@@H](Cc1ccccc1)C(=O)O [Phe] | 
potently inhibited |  | N[C@H](Cc1cc(I)c(Oc2ccc(O)c(I)c2)c(I)c1)C(=O)O [D-T3] | % inhibition ± SEM of uptake of T3 (MCT8 [1]; inhibitor 10 μM): 24 ± 5%; % inhibition ± SEM of uptake of T4 (MCT8 [2]; [7]): 72 ± 3%
 | unable to demonstrate any transport | CC(O)C(=O)O (centres unmarked) [lactate] | Transport in rat MCT1 cRNA-injected oocytes compared to control oocytes (in words) (rat MCT1): greatly stimulated
 | not transported | CC(C)C[C@H](N)C(=O)O [Leu] | 
potently inhibited |  | N[C@H](Cc1cc(I)c(Oc2cc(I)c(O)c(I)c2)c(I)c1)C(=O)O [D-T4] | % inhibition ± SEM of uptake of T3 (MCT8 [1]; inhibitor 10 μM): 21 ± 5%; % inhibition ± SEM of uptake of T4 (MCT8 [2]; [7]): 76 ± 7%
hardly affected | not transported | N[C@@H](Cc1c[nH]c2ccccc12)C(=O)O [Trp] | % inhibition ± SEM of uptake of T3 (MCT8 [1]; inhibitor 100 μM): 0 ± 7%; % inhibition ± SEM of uptake of T4 (MCT8 [2]; [6]): 22 ± 6%
potently inhibited |  | O=C(CBr)N[C@@H](Cc1cc(I)c(Oc2ccc(O)c(I)c2)c(I)c1)C(=O)O [BrAcT3, N-bromoacetyl-3,3′,5-triiodothyronine] | inhibition at 10 µM (MCT8 [2]; labeled T4 10 nm, inhibitor 10 μM, MCT8 cRNA-injected oocytes, read-out: % inhibition ± SEM of uptake of T4): 90 ± 3%; inhibition at 10 µM (MCT8 [2]; read-out: % inhibition ± SEM of uptake of T3): 67 ± 1%
weak effects |  | CCCN(CCC)S(=O)(=O)c1ccc(C(=O)O)cc1 [probenecid] | 

Compound | Inhibition of labeled T4 and T3 uptake by MCT8 (in words) (MCT8 [2]) | Substrate specificity: transport by MCT8 (in words) (MCT8 [3]) | also measured
N[C@@H](Cc1cc(I)c(Oc2cc(I)c(OS(=O)(=O)O)c(I)c2)c(I)c1)C(=O)O [T4S] |  | not transported | 
O=C1OC(c2ccc(O)c(S(=O)(=O)O)c2)(c2ccc(O)c(S(=O)(=O)O)c2)c2c(Br)c(Br)c(Br)c(Br)c21 [BSP, bromosulfophthalein] | potent inhibitor |  | % inhibition ± SEM of uptake of T3 (MCT8 [1]; inhibitor 100 μM): 81 ± 1%; Km (rat oatp1): 1500 nM; % inhibition ± SEM of uptake of T4 (MCT8 [2]; [6]): 94 ± 2%
N[C@@H](Cc1ccc(Oc2cc(I)c(O)c(I)c2)c(I)c1)C(=O)O [rT3, 3,3′,5′-triiodothyronine] |  | rapid uptake | Saturability of transport by MCT8 (MCT8 [4]): saturable; Production rate of rT3S in MCT8 cRNA-injected oocytes versus uninjected cells (MCT8 [5]): much higher
N[C@@H](Cc1ccc(Oc2ccc(O)c(I)c2)c(I)c1)C(=O)O [T2, 3,3′-diiodothyronine] |  | rapid uptake | 
NS(=O)(=O)O [T4NS] |  | not transported | 

From patent publication US20050159352A1, “Use of monocarboxylate transporter protein for thyroid hormone transport” (priority 2002, published 2005)
